Patent US20220229063A1, “FLUORESCENT COMPOUND WITH CYANURIC-HYDROXIDE AND PREPARATION METHOD THEREOF” (Bioacts Corporation, priority 2021, published 2022)

Assay: Comparison of fluorescent values at the same absorption wavelength of compound 2-1 and compound 2-2
Assay type: physicochemical
Protocol: In order to confirm an increase in fluorescent intensity by introducing triazine substituted with a hydroxyl group shown in the compound 3-3 as a linker, the following comparative experiment was conducted.
The compound 2-1 was dissolved in DMF at a concentration of 10 mg/ml and then 5 μl of the compound 2-1 was added to 5 ml of PBS at room temperature, and 5 μl of the compound 2-2 was added to 5 mL of PBS at the same concentration in the same manner. The absorption was measured by adding 2 mL of two samples by 1 mL of PBS and the fluorescence was measured even after diluting the compounds.
In FIGS. 1 and 2, the numerical values of ½ and ¼ indicate that the initial concentration was diluted.

increase in fluorescence intensity (compared to compound 2-1, at a concentration representing the same absorption intensity, DMF stock 10 mg/ml diluted in PBS, room temperature): ≥ 162%
SMILES: CC1(CCCCCC(=O)NCCCNc2nc(O)nc(NCCCCCC(=O)ON3C(=O)CCC3=O)n2)C(/C=C/C=C/C=C2/N(CCCS(=O)(=O)O)c3ccc(S(=O)(=O)O)cc3C2(C)C)=[N+](CCCS(=O)(=O)O)c2ccc(S(=O)(=O)[O-])cc21 (centres unmarked) [Compound 2-2]
fluorescence intensity as compared to the compound 2-1 (single dye form, in PBS, initial concentration and 1/2, 1/4 dilutions): the higher the concentration, the higher the fluorescence intensity
